{"source": "patent US9682965B2", "about": "“Fumagillol heterocyclic compounds and methods of making and using same” (Zafgen, Inc., priority 2015, dated 2017)", "note": "Structures can show the parent of a compound that is named as a salt."}
{"tested_on": "Diet Induced Obese (DIO) C57BL/6 mice", "experiment": "10 day DIO mouse model (body weight, food intake, hematology, blood chemistry)", "format": "in vivo", "conditions": "240 h; DIO mouse, 0.3 mpk sc, once a day for 10 days; read-out: DIO Mouse 10-day weight loss vs vehicle", "excerpt": "The objective of this study design was to investigate the efficacy of disclosed compounds in a 10 day DIO mouse model. Effects on body weight, food intake, hematology and blood chemistry were the primary readouts of this study design. […] Mice were fed Research Diets D12492 (60% Kcal fat, 20% Kcal carbohydrate and 20% protein) and provided water ad libitum. DIO mice were received and housed in the facility for approximately two weeks prior to the start of test article administration. On Day −4 or −3, mice were randomized into study groups based on body weight and body weights were continued to be recorded daily for the duration of the study. Daily food intake was assessed starting on Study Day −2 by weighing of the food with hopper together to avoid loss of food in transfer.\nCompounds were formulated into a 100% DMSO stock (at 9 mg/mL) prior to the start, and further diluted into the target working concentration using the vehicle of 10% DMSO in water. Prior to test article administration, starting on Day −3 a dosing acclimation occured with all animals receiving a subcutaneous injection of vehicle (10% DMSO) only for 3 days. Starting on Day 1, test compounds or vehicle were administered based on individual body weight, subcutaneously, once a day for 10 days. All mice were sacrificed on Day 11, 24 hours following the final dosing on Day 10. After sacrifice, whole blood was collected and analyzed for hematology and blood chemistry parameters.\nCompounds were tested vs. vehicle at various doses (1.0, 0.5, 0.3, 0.1, 0.03 mpk sc (mg per kg animal weight delivered subcutaneously), and the results are shown in Table 2 below.", "units": {"inhibition in vivo at 0.3 mg/kg": "%"}}
{"compound": "CO[C@@H]1[C@H](OC(=O)N2CC(CCC3CCN(C)CC3)C2)CC[C@]2(CO2)[C@H]1[C@@]1(C)O[C@@H]1CC=C(C)C", "note": "[Example 90, (3R,4S,5S,6R)-5-methoxy-4-((2R,3R)-2-methyl-3-(3-methylbut-2-enyl)oxiran-2-yl)-1-oxaspiro[2.5]octan-6-yl 3-(2-(1-methylpiperidin-4-yl)ethyl)azetidine-1-carboxylate formate]", "inhibition in vivo at 0.3 mg/kg": 13.5}
{"compound": "CO[C@@H]1[C@H](OC(=O)N2CC(Oc3ccccn3)C2)CC[C@]2(CO2)[C@H]1[C@@]1(C)O[C@@H]1CC=C(C)C", "note": "[Example 99, (3R,4S,5S,6R)-5-methoxy-4-((2R,3R)-2-methyl-3-(3-methylbut-2-enyl)oxiran-2-yl)-1-oxaspiro[2.5]octan-6-yl 3-(pyridin-2-yloxy)azetidine-1-carboxylate]", "inhibition in vivo at 0.3 mg/kg": 22.9}
{"compound": "CO[C@@H]1[C@H](OC(=O)N2CC(CCN3CCN(CC(F)F)CC3=O)C2)CC[C@]2(CO2)[C@H]1[C@@]1(C)O[C@@H]1CC=C(C)C", "note": "[Example 35, (3R,4S,5S,6R)-5-methoxy-4-((2R,3R)-2-methyl-3-(3-methylbut-2-enyl)oxiran-2-yl)-1-oxaspiro[2.5]octan-6-yl 3-(2-(4-(2,2-difluoroethyl)-2-oxopiperazin-1-yl)ethyl)azetidine-1-carboxylate]", "inhibition in vivo at 0.3 mg/kg": 21.3}
{"compound": "CO[C@@H]1[C@H](OC(=O)N2CC(OC(=O)N(C)C)C2)CC[C@]2(CO2)[C@H]1[C@@]1(C)O[C@@H]1CC=C(C)C", "note": "[Example 77, (3R,4S,5S,6R)-5-methoxy-4-((2R,3R)-2-methyl-3-(3-methylbut-2-enyl)oxiran-2-yl)-1-oxaspiro[2.5]octan-6-yl 3-(dimethylcarbamoyloxy)azetidine-1-carboxylate]", "inhibition in vivo at 0.3 mg/kg": 16.3}
{"compound": "CO[C@@H]1[C@H](OC(=O)N2CC(CCN3CCOCC3=O)C2)CC[C@]2(CO2)[C@H]1[C@@]1(C)O[C@@H]1CC=C(C)C", "note": "[Example 39, (3R,4S,5S,6R)-5-methoxy-4-((2R,3R)-2-methyl-3-(3-methylbut-2-enyl)oxiran-2-yl)-1-oxaspiro[2.5]octan-6-yl 3-(2-(3-oxomorpholino)ethyl)azetidine-1-carboxylate]", "inhibition in vivo at 0.3 mg/kg": 1.7}
{"compound": "CCN(CC)CC[C@@H]1CCCN1C(=O)O[C@@H]1CC[C@]2(CO2)[C@@H]([C@@]2(C)O[C@@H]2CC=C(C)C)[C@@H]1OC", "note": "[Example 51, (S)-((3R,4S,5S,6R)-5-methoxy-4-((2R,3R)-2-methyl-3-(3-methylbut-2-enyl)oxiran-2-yl)-1-oxaspiro[2.5]octan-6-yl) 2-(2-(diethylamino)ethyl)pyrrolidine-1-carboxylate formate]", "inhibition in vivo at 0.3 mg/kg": 4.3}
{"compound": "CO[C@@H]1[C@H](OC(=O)N2CC(CCn3ccnc3)C2)CC[C@]2(CO2)[C@H]1[C@@]1(C)O[C@@H]1CC=C(C)C", "note": "[Example 18, (3R,4S,5S,6R)-5-methoxy-4-((2R,3R)-2-methyl-3-(3-methylbut-2-enyl)oxiran-2-yl)-1-oxaspiro[2.5]octan-6-yl 3-(2-(1H-imidazol-1-yl)ethyl)azetidine-1-carboxylate]", "inhibition in vivo at 0.3 mg/kg": 3}
{"compound": "CO[C@@H]1[C@H](OC(=O)N2CC(CC3CCN(CC(F)F)CC3)C2)CC[C@]2(CO2)[C@H]1[C@@]1(C)O[C@@H]1CC=C(C)C", "note": "[Example 94, (3R,4S,5S,6R)-5-methoxy-4-((2R,3R)-2-methyl-3-(3-methylbut-2-enyl)oxiran-2-yl)-1-oxaspiro[2.5]octan-6-yl 3-((1-(2,2-difluoroethyl)piperidin-4-yl)methyl)azetidine-1-carboxylate]", "inhibition in vivo at 0.3 mg/kg": 22.5}
{"compound": "CO[C@@H]1[C@H](OC(=O)N2CC(CCN3CC[C@H](O)C3)C2)CC[C@]2(CO2)[C@H]1[C@@]1(C)O[C@@H]1CC=C(C)C", "note": "[Example 46, (3R,4S,5S,6R)-5-methoxy-4-((2R,3R)-2-methyl-3-(3-methylbut-2-enyl)oxiran-2-yl)-1-oxaspiro[2.5]octan-6-yl 3-(2-((S)-3-hydroxypyrrolidin-1-yl)ethyl)azetidine-1-carboxylate formate]", "inhibition in vivo at 0.3 mg/kg": 5.2}
{"compound": "CO[C@@H]1[C@H](OC(=O)N2CC(CCC3CN(CC(F)F)C3)C2)CC[C@]2(CO2)[C@H]1[C@@]1(C)O[C@@H]1CC=C(C)C", "note": "[Example 92, (3R,4S,5S,6R)-5-methoxy-4-((2R,3R)-2-methyl-3-(3-methylbut-2-enyl)oxiran-2-yl)-1-oxaspiro[2.5]octan-6-yl 3-(2-(1-(2,2-difluoroethyl)azetidin-3-yl)ethyl)azetidine-1-carboxylate]", "inhibition in vivo at 0.3 mg/kg": 20.7}
{"compound": "CO[C@@H]1[C@H](OC(=O)N2CC[C@@H]2CN2CCCC2)CC[C@]2(CO2)[C@H]1[C@@]1(C)O[C@@H]1CC=C(C)C", "note": "[Example 42, (R)-((3R,4S,5S,6R)-5-methoxy-4-((2R,3R)-2-methyl-3-(3-methylbut-2-enyl)oxiran-2-yl)-1-oxaspiro[2.5]octan-6-yl) 2-(pyrrolidin-1-ylmethyl)azetidine-1-carboxylate formate]", "inhibition in vivo at 0.3 mg/kg": 5.3}
{"compound": "CO[C@@H]1[C@H](OC(=O)N2CC[C@H]2CN2CCCC2)CC[C@]2(CO2)[C@H]1[C@@]1(C)O[C@@H]1CC=C(C)C", "note": "[Example 41, (S)-((3R,4S,5S,6R)-5-methoxy-4-((2R,3R)-2-methyl-3-(3-methylbut-2-enyl)oxiran-2-yl)-1-oxaspiro[2.5]octan-6-yl) 2-(pyrrolidin-1-ylmethyl)azetidine-1-carboxylate formate]", "inhibition in vivo at 0.3 mg/kg": 4.4}
{"compound": "CCN(CC)C[C@H]1CCN(C(=O)O[C@@H]2CC[C@]3(CO3)[C@@H]([C@@]3(C)O[C@@H]3CC=C(C)C)[C@@H]2OC)C1", "note": "[Example 38, (R)-((3R,4S,5S,6R)-5-methoxy-4-((2R,3R)-2-methyl-3-(3-methylbut-2-enyl)oxiran-2-yl)-1-oxaspiro[2.5]octan-6-yl) 3-((diethylamino)methyl)pyrrolidine-1-carboxylate formate]", "inhibition in vivo at 0.3 mg/kg": 6.7}
{"compound": "COC(=O)NC1CN(C(=O)O[C@@H]2CC[C@]3(CO3)[C@@H]([C@@]3(C)O[C@@H]3CC=C(C)C)[C@@H]2OC)C1", "note": "[Example 87, (3R,4S,5S,6R)-5-methoxy-4-((2R,3R)-2-methyl-3-(3-methylbut-2-enyl)oxiran-2-yl)-1-oxaspiro[2.5]octan-6-yl 3-(methoxycarbonylamino)azetidine-1-carboxylate]", "inhibition in vivo at 0.3 mg/kg": 10.9}
{"compound": "CCNC(=O)OC1CN(C(=O)O[C@@H]2CC[C@]3(CO3)[C@@H]([C@@]3(C)O[C@@H]3CC=C(C)C)[C@@H]2OC)C1", "note": "[Example 75, (3R,4S,5S,6R)-5-methoxy-4-((2R,3R)-2-methyl-3-(3-methylbut-2-enyl)oxiran-2-yl)-1-oxaspiro[2.5]octan-6-yl 3-(ethylcarbamoyloxy)azetidine-1-carboxylate]", "inhibition in vivo at 0.3 mg/kg": 12.8}
{"compound": "CO[C@@H]1[C@H](OC(=O)N2CC(CCN3C4CCC3CC4)C2)CC[C@]2(CO2)[C@H]1[C@@]1(C)O[C@@H]1CC=C(C)C", "note": "[Example 32, (3R,4S,5S,6R)-5-methoxy-4-((2R,3R)-2-methyl-3-(3-methylbut-2-enyl)oxiran-2-yl)-1-oxaspiro[2.5]octan-6-yl 3-(2-((1S,4S)-7-azabicyclo[2.2.1]heptan-7-yl)ethyl)azetidine-1-carboxylate]", "inhibition in vivo at 0.3 mg/kg": 0.5}
{"compound": "CO[C@@H]1[C@H](OC(=O)N2CC(CCN3CC(C)(C#N)C3)C2)CC[C@]2(CO2)[C@H]1[C@@]1(C)O[C@@H]1CC=C(C)C", "note": "[Example 14, (3R,4S,5S,6R)-5-methoxy-4-((2R,3R)-2-methyl-3-(3-methylbut-2-enyl)oxiran-2-yl)-1-oxaspiro[2.5]octan-6-yl 3-(2-(3-cyano-3-methylazetidin-1-yl)ethyl)azetidine-1-carboxylate]", "inhibition in vivo at 0.3 mg/kg": 12.5}
